# Biological target: T1, Lethal factor (Bacillus anthracis, UniProt P15917)
# T1 sequence (P15917 whole entry): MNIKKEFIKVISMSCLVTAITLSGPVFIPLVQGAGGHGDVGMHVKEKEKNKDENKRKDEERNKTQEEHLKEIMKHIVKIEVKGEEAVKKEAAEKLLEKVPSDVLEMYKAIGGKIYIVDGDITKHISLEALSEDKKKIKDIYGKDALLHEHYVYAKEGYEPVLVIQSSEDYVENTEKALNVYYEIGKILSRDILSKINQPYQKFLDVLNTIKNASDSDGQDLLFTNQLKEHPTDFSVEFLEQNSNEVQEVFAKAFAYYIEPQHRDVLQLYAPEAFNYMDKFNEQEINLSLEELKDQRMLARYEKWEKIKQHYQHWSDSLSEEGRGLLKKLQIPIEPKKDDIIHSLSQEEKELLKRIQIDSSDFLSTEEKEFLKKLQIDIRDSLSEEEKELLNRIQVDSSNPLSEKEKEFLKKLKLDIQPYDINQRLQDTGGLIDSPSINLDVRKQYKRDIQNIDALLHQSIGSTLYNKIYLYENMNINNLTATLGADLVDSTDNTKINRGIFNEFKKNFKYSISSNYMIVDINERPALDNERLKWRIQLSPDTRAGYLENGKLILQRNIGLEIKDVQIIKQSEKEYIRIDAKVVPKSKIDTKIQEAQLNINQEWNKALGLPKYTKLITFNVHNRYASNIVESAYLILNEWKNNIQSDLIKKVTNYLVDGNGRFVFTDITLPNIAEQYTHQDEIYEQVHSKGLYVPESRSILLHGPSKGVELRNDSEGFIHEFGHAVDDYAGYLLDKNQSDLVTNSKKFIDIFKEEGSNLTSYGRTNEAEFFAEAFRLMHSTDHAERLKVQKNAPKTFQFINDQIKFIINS
# Assay: Inhibition of Bacillus anthracis lethal factor assessed as cleavage of MAPKK by fluorescence peptide cleavage assay
structure (smiles),measurement,value
COc1ccc(-c2ccc(S(=O)(=O)Nc3sccc3-c3nc4ccccc4s3)cc2)cc1 [N-(3-(benzo[d]thiazol-2-yl)thiophen-2-yl)-4'-methoxybiphenyl-4-sulfonamide],Ki,1000 nM
